Assay results: publication doi:10.1101/2021.02.21.432137v1 (biorxiv, 2021)

Columns and labels:
Conditions in all cases: binder
LRRK2 = LRRK2 (Homo sapiens, UniProt Q5S007)
NUAK1 = biological target: T1, NUAK1 (Homo sapiens, UniProt O60285)
T1 sequence (O60285 1-661): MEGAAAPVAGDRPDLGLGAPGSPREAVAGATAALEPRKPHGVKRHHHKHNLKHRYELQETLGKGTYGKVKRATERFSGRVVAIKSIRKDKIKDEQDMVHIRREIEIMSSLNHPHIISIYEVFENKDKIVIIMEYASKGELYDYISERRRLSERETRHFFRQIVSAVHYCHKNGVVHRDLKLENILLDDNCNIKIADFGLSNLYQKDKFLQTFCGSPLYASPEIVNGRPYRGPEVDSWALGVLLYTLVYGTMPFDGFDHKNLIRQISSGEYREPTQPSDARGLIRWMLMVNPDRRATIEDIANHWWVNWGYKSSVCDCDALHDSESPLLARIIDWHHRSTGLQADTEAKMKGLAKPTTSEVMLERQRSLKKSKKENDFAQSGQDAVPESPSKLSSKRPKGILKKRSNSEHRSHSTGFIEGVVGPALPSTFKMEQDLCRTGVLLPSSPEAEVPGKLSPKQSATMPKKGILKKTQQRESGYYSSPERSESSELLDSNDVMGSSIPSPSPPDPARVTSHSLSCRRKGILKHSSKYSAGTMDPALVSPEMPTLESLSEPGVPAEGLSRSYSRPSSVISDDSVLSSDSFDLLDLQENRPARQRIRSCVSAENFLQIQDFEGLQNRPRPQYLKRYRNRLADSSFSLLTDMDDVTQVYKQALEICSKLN

LRRK2 (G2019S) = LRRK2 (G2019S) (Homo sapiens, UniProt Q5S007, G2019S)
Chain of LRRK2 (G2019S) (Q5S007 whole entry G2019S): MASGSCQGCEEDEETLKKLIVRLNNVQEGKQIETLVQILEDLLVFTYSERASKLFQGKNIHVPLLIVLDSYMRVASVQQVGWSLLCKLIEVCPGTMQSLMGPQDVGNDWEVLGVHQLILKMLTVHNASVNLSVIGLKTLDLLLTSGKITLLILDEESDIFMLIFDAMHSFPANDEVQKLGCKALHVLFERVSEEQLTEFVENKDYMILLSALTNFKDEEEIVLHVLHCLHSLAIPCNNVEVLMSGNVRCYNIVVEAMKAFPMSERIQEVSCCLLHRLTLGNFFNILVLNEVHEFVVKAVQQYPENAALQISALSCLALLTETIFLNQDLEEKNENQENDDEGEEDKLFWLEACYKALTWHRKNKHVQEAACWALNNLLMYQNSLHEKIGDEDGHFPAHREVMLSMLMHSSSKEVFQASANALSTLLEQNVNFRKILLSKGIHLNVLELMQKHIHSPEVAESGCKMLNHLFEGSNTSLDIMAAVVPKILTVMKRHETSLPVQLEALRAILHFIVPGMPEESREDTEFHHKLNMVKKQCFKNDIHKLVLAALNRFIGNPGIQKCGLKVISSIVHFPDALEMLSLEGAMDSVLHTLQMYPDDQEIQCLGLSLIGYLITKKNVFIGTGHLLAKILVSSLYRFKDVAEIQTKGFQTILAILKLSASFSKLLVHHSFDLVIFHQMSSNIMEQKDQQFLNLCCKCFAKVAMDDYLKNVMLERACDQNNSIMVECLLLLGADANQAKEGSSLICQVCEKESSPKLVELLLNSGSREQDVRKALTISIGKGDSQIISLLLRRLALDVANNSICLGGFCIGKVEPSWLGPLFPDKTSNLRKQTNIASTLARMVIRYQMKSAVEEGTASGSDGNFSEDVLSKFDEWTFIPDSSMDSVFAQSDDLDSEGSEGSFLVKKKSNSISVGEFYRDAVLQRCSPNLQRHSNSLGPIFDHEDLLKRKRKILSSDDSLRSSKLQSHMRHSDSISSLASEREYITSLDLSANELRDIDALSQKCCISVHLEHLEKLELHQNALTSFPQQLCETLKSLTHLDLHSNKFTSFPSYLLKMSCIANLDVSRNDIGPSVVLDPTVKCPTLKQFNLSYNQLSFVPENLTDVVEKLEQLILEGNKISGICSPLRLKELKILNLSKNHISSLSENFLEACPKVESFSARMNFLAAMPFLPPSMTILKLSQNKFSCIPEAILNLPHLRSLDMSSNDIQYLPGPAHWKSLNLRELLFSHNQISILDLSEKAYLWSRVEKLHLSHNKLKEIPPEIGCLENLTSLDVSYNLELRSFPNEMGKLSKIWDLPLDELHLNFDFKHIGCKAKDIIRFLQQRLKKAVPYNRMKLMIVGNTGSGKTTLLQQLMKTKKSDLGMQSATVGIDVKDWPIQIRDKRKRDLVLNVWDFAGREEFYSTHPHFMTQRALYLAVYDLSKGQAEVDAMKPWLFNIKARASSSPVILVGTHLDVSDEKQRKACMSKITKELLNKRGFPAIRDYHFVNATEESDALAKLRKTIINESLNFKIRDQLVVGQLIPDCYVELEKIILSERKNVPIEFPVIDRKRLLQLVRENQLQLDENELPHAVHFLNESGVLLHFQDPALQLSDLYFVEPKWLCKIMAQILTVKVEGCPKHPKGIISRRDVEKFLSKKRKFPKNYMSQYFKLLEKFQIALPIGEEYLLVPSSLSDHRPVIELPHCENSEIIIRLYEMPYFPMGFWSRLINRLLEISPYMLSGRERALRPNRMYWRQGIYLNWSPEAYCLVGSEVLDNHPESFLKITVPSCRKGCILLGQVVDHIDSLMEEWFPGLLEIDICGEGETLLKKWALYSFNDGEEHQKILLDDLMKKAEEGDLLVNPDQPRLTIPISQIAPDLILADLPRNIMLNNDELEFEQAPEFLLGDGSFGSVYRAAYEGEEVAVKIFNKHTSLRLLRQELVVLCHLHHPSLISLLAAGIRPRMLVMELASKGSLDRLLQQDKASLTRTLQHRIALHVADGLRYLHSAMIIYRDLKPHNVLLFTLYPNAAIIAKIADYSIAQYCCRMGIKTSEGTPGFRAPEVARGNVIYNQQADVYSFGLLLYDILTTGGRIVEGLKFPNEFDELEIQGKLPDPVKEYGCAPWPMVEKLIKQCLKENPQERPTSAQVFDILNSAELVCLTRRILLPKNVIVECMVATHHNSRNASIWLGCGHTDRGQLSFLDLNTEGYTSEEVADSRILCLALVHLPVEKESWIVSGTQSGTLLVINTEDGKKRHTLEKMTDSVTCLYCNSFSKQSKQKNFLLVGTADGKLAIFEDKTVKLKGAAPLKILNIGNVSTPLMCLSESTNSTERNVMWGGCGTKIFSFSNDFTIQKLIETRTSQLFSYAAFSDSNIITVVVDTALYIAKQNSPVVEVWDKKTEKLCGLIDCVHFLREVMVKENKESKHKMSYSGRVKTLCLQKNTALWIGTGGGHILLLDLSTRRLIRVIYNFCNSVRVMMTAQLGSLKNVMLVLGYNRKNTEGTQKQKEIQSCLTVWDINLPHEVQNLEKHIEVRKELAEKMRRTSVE

JAK3 = biological target: T2, JAK3 (Homo sapiens, UniProt P52333)
T2 sequence (P52333 1-1124): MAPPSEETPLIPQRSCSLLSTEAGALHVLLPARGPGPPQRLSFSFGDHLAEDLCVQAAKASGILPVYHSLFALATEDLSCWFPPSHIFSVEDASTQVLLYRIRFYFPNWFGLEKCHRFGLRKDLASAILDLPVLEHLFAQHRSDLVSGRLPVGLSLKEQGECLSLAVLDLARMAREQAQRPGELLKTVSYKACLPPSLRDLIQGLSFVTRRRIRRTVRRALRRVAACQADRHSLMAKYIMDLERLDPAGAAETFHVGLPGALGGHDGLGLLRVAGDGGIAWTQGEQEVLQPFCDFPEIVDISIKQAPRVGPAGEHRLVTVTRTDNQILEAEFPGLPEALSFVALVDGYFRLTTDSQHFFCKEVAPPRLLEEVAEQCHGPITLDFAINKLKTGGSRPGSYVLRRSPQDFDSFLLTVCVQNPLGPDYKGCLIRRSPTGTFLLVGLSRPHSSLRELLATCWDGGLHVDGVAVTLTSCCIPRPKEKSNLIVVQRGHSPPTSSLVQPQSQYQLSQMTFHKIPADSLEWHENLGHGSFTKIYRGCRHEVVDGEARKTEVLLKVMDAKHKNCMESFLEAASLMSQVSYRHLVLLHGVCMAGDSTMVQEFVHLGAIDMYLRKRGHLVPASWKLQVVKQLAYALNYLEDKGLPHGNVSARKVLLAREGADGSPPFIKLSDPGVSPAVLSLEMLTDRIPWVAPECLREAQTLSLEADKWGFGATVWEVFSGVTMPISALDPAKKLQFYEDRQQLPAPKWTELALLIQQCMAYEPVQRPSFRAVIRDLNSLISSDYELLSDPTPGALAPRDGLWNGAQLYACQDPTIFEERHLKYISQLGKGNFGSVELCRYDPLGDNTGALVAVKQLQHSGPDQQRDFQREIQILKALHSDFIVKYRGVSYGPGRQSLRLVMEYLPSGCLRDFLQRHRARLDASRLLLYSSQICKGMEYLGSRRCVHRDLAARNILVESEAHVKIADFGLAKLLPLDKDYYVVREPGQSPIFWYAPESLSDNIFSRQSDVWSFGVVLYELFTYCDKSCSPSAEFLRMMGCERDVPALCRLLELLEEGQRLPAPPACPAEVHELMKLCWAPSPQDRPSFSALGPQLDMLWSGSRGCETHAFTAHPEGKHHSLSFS

Chain of LRRK2 (Q5S007 whole entry): as the sequence (Q5S007 whole entry G2019S) above, with S2019G counted along it

- Compound A1 PoC (LRRK2): 2.1%
- Compound A1 PoC (NUAK1): 4.1%
- Compound A1 PoC (LRRK2 (G2019S)): 7.5%
- Compound A1 PoC (JAK3): 0.7%
Compound: C[C@H](NC(=O)c1c[nH]c2ncc(C3CC3)nc12)C(C)(C)C [A1, UNC-BE4-017]
